In US8759363B2, “Quinazoline-based T cell proliferation inhibitors” (Yissum Research Development Company of the Hebrew …, priority 2010, dated 2014):
Like-named read-outs stand apart in the source and are kept apart here.

What was measured:
PBMC = PBMC proliferation, BrdU incorporation; format: cell-based, human; conditions: Homo sapiens
Procedure: Blood samples were taken from healthy donors and loaded on a Ficoll density gradient to purify the PBMC population. T cells were purified by human anti-CD3 using an autoMACS instrument (Miltenyi Biotec, Bergisch-Gladbach, Germany), according to the manufacturer's instructions. The identity of T cells was confirmed by flow cytometry, as they stained positive for CD3. Cells were stimulated with ConA (10 μg/ml), ODN2006 (0.5 μg/ml; Enzo Life Sciences), or LPS (50 μg/ml; Sigma-Aldrich, Steinheim, Germany), for 72 h in the presence of the inhibitor, and their proliferation was measured in the BrdU incorporation assay as will be later described.
Cells were depleted of fetal calf serum (FCS) for 12 hours. They were then stimulated to proliferate by addition of ConA (10 μg/ml) for PBMC from healthy individuals and for Jurkat cells, FCS (10%) for HEK293 and A375 cells, PDGF (30 ng/ml) for NIH 3T3 cells, and EGF (30 ng/ml) for MDA-MB-231, Cells (1×10^5) were cultured in 96-well plates for 3 days in the presence or absence of inhibitors at the concentrations specified in the text. Each condition was tested in duplicate wells.
Proliferation was assessed by BrdU incorporation using a colorimetric ELISA kit (Roche, Germany). Subsequent to labeling with 10 μM BrdU, DNA was denatured and the cells were incubated with anti-BrdU-POD, prior to the addition of colorimetric substrate (TMB). The reaction product was quantified by measuring absorbance at 450 nm in an ELISA plate reader (ELx800 BIO-TEK Instruments Inc.).
Since we were not prejudiced towards any specific protein kinase, we used a biological assay for T cell proliferation. We tested our libraries for inhibition of proliferation of PBMC and Jurkat cells (Table 3). Cell proliferation was measured by BrdU uptake. […] PBMC cells were stimulated by a non-specific T cell mitogen, Concanavalin A (ConA). All of the compounds that were tested inhibited proliferation at micromolar or sub-micromolar concentrations.

[1] = tested on: IL-2 secretion by 2C splenocytes stimulated by irradiated BALB/c splenocytes; experiment: IL-2 levels in MLR supernatants; format: cell-based, mouse; conditions: 24, 48 and 72 h MLR; compound 2 up to 1 μM
Procedure: In the mixed lymphocyte reaction, stimulator cells cause responder cells to proliferate, owing to alloreactivity [Reich-Zeliger et al., 2004]. Splenocytes from 2c mice were stimulated by irradiated splenocytes from BALB/c mice in the presence of the evaluated compound at the concentrations specified. Cultures were incubated for 72 hours in 96-well plates.
Jurkat or PBMC cells were treated for 12 h with 1 μM, 0.5 μM or no inhibitor. Cells (1×10^6) were plated in 24-well plates (Nunc) and stimulated by C305 (dilution 1:500), anti-CD28 (1:100), PMA (50 ng/ml) or ionomycin (1 μM) for 12 h. Alternately, cells were stimulated for 24, 48 and 72 h in MLR. After stimulation cells were centrifuged at 130×g for 5 minutes at room temperature.
Supernatants were collected and IL-2 was assayed using the IL-2 ELISA kit (BioSource International USA, KH0022) according to the manufacturer's instructions. Absorbance was read at 450 nm in an ELISA plate reader (ELx800 BIO-TEK Instruments Inc.).
In vivo, T cells are stimulated by neighboring cells. In order to test the effect of 2 on cell-stimulated IL-2 secretion, the supernatants of splenocytes after 24, 48 and 72 h MLR were collected and analyzed for their IL-2 levels (FIG. 5C). […] At higher concentrations, no viable cells remained.

ZAP-70 = biological target: T1, ZAP-70 (Homo sapiens, UniProt P43403); experiment: SLP-76 kinase assay with ZAP-70 immunoprecipitated from treated Jurkat cells; format: cell-based; conditions: ZAP-70 from Jurkat cells treated 16 h, recombinant SLP-76 substrate, dose-dependent
T1 construct: We also immunoprecipitated the ZAP-70 kinase from the treated/untreated cells; endogenous in cells; host or cells: Jurkat
T1 sequence (P43403 whole entry): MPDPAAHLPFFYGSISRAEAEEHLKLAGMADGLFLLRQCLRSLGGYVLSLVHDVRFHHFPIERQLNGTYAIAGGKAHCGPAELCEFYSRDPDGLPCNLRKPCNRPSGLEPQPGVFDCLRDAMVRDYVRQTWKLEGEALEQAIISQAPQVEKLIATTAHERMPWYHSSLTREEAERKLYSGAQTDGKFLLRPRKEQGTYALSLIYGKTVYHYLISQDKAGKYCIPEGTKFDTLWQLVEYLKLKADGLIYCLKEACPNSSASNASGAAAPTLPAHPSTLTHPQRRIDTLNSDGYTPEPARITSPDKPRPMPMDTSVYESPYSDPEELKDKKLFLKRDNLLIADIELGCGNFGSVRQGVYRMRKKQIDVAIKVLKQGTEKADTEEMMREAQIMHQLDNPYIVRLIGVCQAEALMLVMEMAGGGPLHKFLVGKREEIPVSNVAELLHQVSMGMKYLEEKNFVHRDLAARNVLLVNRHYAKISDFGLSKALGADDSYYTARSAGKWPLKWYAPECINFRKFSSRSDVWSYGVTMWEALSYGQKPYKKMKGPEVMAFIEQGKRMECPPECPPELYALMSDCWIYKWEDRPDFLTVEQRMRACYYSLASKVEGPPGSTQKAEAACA
Procedure: ZAP-70 was immunoprecipitated as described above. The immune complexes were washed 2 times with lysis buffer and 2 times with kinase buffer (50 mM Tris pH 7.5, 100 mM NaCl and 10 mM MgCl2). The beads were resuspended in 30 μl of kinase buffer containing 3 μg of His-tagged, full-length human SLP-76 protein (kindly provided by Dr. Yablonski, Technion, Israel), and the kinase reactions were initiated by the addition of 10 μl kinase buffer containing 5 μM ATP. The reactions proceeded for 15 min at 30° C. and were stopped by the addition of 6 μL EDTA (100 mM) and sample buffer. The results were analyzed by western blot [Yablonski, 1998]
Jurkat cells were treated with 2 for 16 h, and SLP-76 phosphorylation was measured by immunoprecipitation of SLP-76 protein followed by western blotting with an antibody to the phosphorylated tyrosines of the protein (FIG. 6A). We also immunoprecipitated the ZAP-70 kinase from the treated/untreated cells, and tested its ability to phosphorylate recombinant SLP-76 protein as substrate (FIG. 6B). […] Presumably the remaining SLP-76 activity was sufficient to allow IL-2 secretion.

**Q.** What does the source list for `COc1cc(-c2nc(Nc3ccc(C)cc3)c3ccccc3n2)cc(OC)c1OC` [Compound 2, N-p-tolyl-2-(3,4,5-trimethoxyphenyl)quinazolin-4-amine]?
**A.** IC50 (PBMC; PBMC, ConA 10 μg/ml, 72 h, read-out: IC50 ConA-stimulated proliferation of PBMC): ~100 nM; IC50 (PBMC; PBMC, ODN2006 0.5 μg/ml or LPS 50 μg/ml, 72 h, read-out: IC50 ODN2006 and LPS-stimulated proliferation of PBMCs): ~500 nM; IC50 (PBMC; ConA-stimulated PBMC, BrdU uptake, nM ± SD, read-out: IC50 PBMC proliferation inhibition): 70 nM; IC50 (PBMC; PBMC, non-stimulated, BrdU uptake, read-out: IC50 of non-stimulated cells): 50 nM; IL-2 levels in MLR supernatants [1]: no visible decrease; activity of ZAP-70 (ZAP-70): inhibited
